Columns and labels:
Assay in all cases: relative viability (nuclei count vs DMSO), 5 days (fraction); higher = more cells survive
[1] = system: NCI-H1299
In short: (§1)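 For relative viability, nuclei counts in treated wells were divided by those in vehicle wells. Lung cancer cell lines had been pin-tool dosed in 1536-well plates the day after seeding and cultured for 5 days, then fixed and stained in one step (final 0.05% Triton X-100, 1% formaldehyde, 1 ug/ml Hoechst) and imaged at 4×. Doses were one drug alone or a fixed anchor-drug dose plus five library-drug doses (not always all listed) in √10 steps, and values are duplicate-plate medians.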

[2] = system: A549
In short: as §1

[3] = system: NCI-H1563
In short: as §1

[4] = system: EBC-1
In short: as §1

[5] = system: NCI-H2087
In short: as §1

[6] = system: NCI-H322M
In short: as §1

[7] = system: HCC-78
In short: as §1

[8] = system: Calu-6
In short: as §1

[9] = system: NCI-H1703
In short: as §1

[10] = system: HCC-44
In short: as §1

[11] = system: IA-LM
In short: as §1

## Nc1cccc2c1CN(C1CCC(=O)NC1=O)C2=O (centres undefined) [Lenalidomide] + CS(=O)(=O)CCNCc1ccc(-c2ccc3ncnc(Nc4ccc(OCc5cccc(F)c5)c(Cl)c4)c3c2)o1 [Lapatinib] (partner 2 µM)
[1]; first compound 0.253 µM
  relative viability: 0.961
[1]; first compound 0.8 µM
  relative viability: 0.873
[1]; first compound 2.53 µM
  relative viability: 0.948
[1]; first compound 8 µM
  relative viability: 1.01
[2]; first compound 0.253 µM
  relative viability: 1.06
[2]; first compound 0.8 µM
  relative viability: 1.09
[2]; first compound 2.53 µM
  relative viability: 0.972
[2]; first compound 8 µM
  relative viability: 1.02
[3]; first compound 0.253 µM
  relative viability: 0.919
[3]; first compound 0.8 µM
  relative viability: 0.852
[3]; first compound 2.53 µM
  relative viability: 0.979
[3]; first compound 8 µM
  relative viability: 0.763
[4]; first compound 0.253 µM
  relative viability: 0.211
[4]; first compound 0.8 µM
  relative viability: 0.205
[4]; first compound 2.53 µM
  relative viability: 0.217
[4]; first compound 8 µM
  relative viability: 0.235
[5]; first compound 0.253 µM
  relative viability: 1.01
[5]; first compound 0.8 µM
  relative viability: 0.78
[5]; first compound 2.53 µM
  relative viability: 1.07
[5]; first compound 8 µM
  relative viability: 1.09
[6]; first compound 0.253 µM
  relative viability: 0.648
[6]; first compound 0.8 µM
  relative viability: 0.629
[6]; first compound 2.53 µM
  relative viability: 0.592
[6]; first compound 8 µM
  relative viability: 0.635
[7]; first compound 0.253 µM
  relative viability: 0.811
[7]; first compound 0.8 µM
  relative viability: 0.367
[7]; first compound 2.53 µM
  relative viability: 0.245
[7]; first compound 8 µM
  relative viability: 0.271
[8]; first compound 0.253 µM
  relative viability: 0.971
[8]; first compound 0.8 µM
  relative viability: 1.09
[8]; first compound 2.53 µM
  relative viability: 1.17
[8]; first compound 8 µM
  relative viability: 1.13
[9]; first compound 0.253 µM
  relative viability: 1.06
[9]; first compound 0.8 µM
  relative viability: 1.78
[9]; first compound 2.53 µM
  relative viability: 1.42
[9]; first compound 8 µM
  relative viability: 1.24
[10]; first compound 0.253 µM
  relative viability: 0.997
[10]; first compound 0.8 µM
  relative viability: 0.799
[10]; first compound 2.53 µM
  relative viability: 1.05
[10]; first compound 8 µM
  relative viability: 0.924
[11]; first compound 0.253 µM
  relative viability: 0.647
[11]; first compound 0.8 µM
  relative viability: 0.557
[11]; first compound 2.53 µM
  relative viability: 0.613
[11]; first compound 8 µM
  relative viability: 0.532

## Nc1cccc2c1CN(C1CCC(=O)NC1=O)C2=O (centres undefined) [Lenalidomide] + Cc1nc(NC(=O)N2CCC[C@H]2C(N)=O)sc1-c1ccnc(C(C)(C)C(F)(F)F)c1 [Alpelisib] (partner 2 µM)
[1]; first compound 0.253 µM
  relative viability: 1.03
[1]; first compound 0.8 µM
  relative viability: 1.1
[1]; first compound 2.53 µM
  relative viability: 1.06
[1]; first compound 8 µM
  relative viability: 1.09
[2]; first compound 0.253 µM
  relative viability: 0.789
[2]; first compound 0.8 µM
  relative viability: 0.765
[2]; first compound 2.53 µM
  relative viability: 0.813
[2]; first compound 8 µM
  relative viability: 0.702
[3]; first compound 0.253 µM
  relative viability: 0.843
[3]; first compound 0.8 µM
  relative viability: 0.908
[3]; first compound 2.53 µM
  relative viability: 0.829
[3]; first compound 8 µM
  relative viability: 0.87
[4]; first compound 0.253 µM
  relative viability: 0.787
[4]; first compound 0.8 µM
  relative viability: 0.798
[4]; first compound 2.53 µM
  relative viability: 0.907
[4]; first compound 8 µM
  relative viability: 1.01
[5]; first compound 0.253 µM
  relative viability: 0.996
[5]; first compound 0.8 µM
  relative viability: 0.945
[5]; first compound 2.53 µM
  relative viability: 1.17
[5]; first compound 8 µM
  relative viability: 1.08
[6]; first compound 0.253 µM
  relative viability: 0.745
[6]; first compound 0.8 µM
  relative viability: 0.887
[6]; first compound 2.53 µM
  relative viability: 0.837
[6]; first compound 8 µM
  relative viability: 0.66
[7]; first compound 0.253 µM
  relative viability: 0.381
[7]; first compound 0.8 µM
  relative viability: 0.339
[7]; first compound 2.53 µM
  relative viability: 0.314
[7]; first compound 8 µM
  relative viability: 0.209
[8]; first compound 0.253 µM
  relative viability: 0.945
[8]; first compound 0.8 µM
  relative viability: 0.946
[8]; first compound 2.53 µM
  relative viability: 1.08
[8]; first compound 8 µM
  relative viability: 1.02
[9]; first compound 0.253 µM
  relative viability: 0.253
[9]; first compound 0.8 µM
  relative viability: 0.276
[9]; first compound 2.53 µM
  relative viability: 0.366
[9]; first compound 8 µM
  relative viability: 0.354
[10]; first compound 0.253 µM
  relative viability: 0.865
[10]; first compound 0.8 µM
  relative viability: 0.594
[10]; first compound 2.53 µM
  relative viability: 0.821
[10]; first compound 8 µM
  relative viability: 0.663
[11]; first compound 0.253 µM
  relative viability: 0.716
[11]; first compound 0.8 µM
  relative viability: 0.735
[11]; first compound 2.53 µM
  relative viability: 0.797
[11]; first compound 8 µM
  relative viability: 0.75

## CCNC(=O)c1noc(-c2cc(C(C)C)c(O)cc2O)c1-c1ccc(CN2CCOCC2)cc1 [Luminespib] + CS(=O)(=O)CCNCc1ccc(-c2ccc3ncnc(Nc4ccc(OCc5cccc(F)c5)c(Cl)c4)c3c2)o1 [Lapatinib] (partner 2 µM)
[1]; first compound 0.002 µM
  relative viability: 1.04
[1]; first compound 0.006325 µM
  relative viability: 0.965
[1]; first compound 0.02 µM
  relative viability: 0.989
[1]; first compound 0.06325 µM
  relative viability: 0.892
[1]; first compound 0.2 µM
  relative viability: 0.219
[2]; first compound 0.002 µM
  relative viability: 0.983
[2]; first compound 0.006325 µM
  relative viability: 0.903
[2]; first compound 0.02 µM
  relative viability: 0.897
[2]; first compound 0.06325 µM
  relative viability: 0.627
[2]; first compound 0.2 µM
  relative viability: 0.0491
[3]; first compound 0.002 µM
  relative viability: 0.963
[3]; first compound 0.006325 µM
  relative viability: 0.818
[3]; first compound 0.02 µM
  relative viability: 0.616
[3]; first compound 0.06325 µM
  relative viability: 0.474
[3]; first compound 0.2 µM
  relative viability: 0.528
[4]; first compound 0.002 µM
  relative viability: 0.204
[4]; first compound 0.006325 µM
  relative viability: 0.223
[4]; first compound 0.02 µM
  relative viability: 0.233
[4]; first compound 0.06325 µM
  relative viability: 0.187
[4]; first compound 0.2 µM
  relative viability: 0.194
[5]; first compound 0.002 µM
  relative viability: 1.11
[5]; first compound 0.006325 µM
  relative viability: 0.954
[5]; first compound 0.02 µM
  relative viability: 0.726
[5]; first compound 0.06325 µM
  relative viability: 0.202
[5]; first compound 0.2 µM
  relative viability: 0.174
[6]; first compound 0.002 µM
  relative viability: 0.556
[6]; first compound 0.006325 µM
  relative viability: 0.573
[6]; first compound 0.02 µM
  relative viability: 0.503
[6]; first compound 0.06325 µM
  relative viability: 0.708
[6]; first compound 0.2 µM
  relative viability: 0.373
[7]; first compound 0.002 µM
  relative viability: 0.572
[7]; first compound 0.06325 µM
  relative viability: 1.32
[7]; first compound 0.2 µM
  relative viability: 1.27
[8]; first compound 0.002 µM
  relative viability: 1.11
[8]; first compound 0.006325 µM
  relative viability: 0.962
[8]; first compound 0.02 µM
  relative viability: 1.38
[8]; first compound 0.06325 µM
  relative viability: 0.166
[8]; first compound 0.2 µM
  relative viability: 0.119
[9]; first compound 0.002 µM
  relative viability: 1.14
[9]; first compound 0.006325 µM
  relative viability: 1.07
[9]; first compound 0.02 µM
  relative viability: 0.998
[9]; first compound 0.06325 µM
  relative viability: 0.158
[9]; first compound 0.2 µM
  relative viability: 0.16
[10]; first compound 0.002 µM
  relative viability: 0.975
[10]; first compound 0.006325 µM
  relative viability: 1.08
[10]; first compound 0.02 µM
  relative viability: 1.18
[10]; first compound 0.06325 µM
  relative viability: 0.161
[10]; first compound 0.2 µM
  relative viability: 0.159
[11]; first compound 0.002 µM
  relative viability: 0.929
[11]; first compound 0.006325 µM
  relative viability: 0.935
[11]; first compound 0.02 µM
  relative viability: 0.643
[11]; first compound 0.06325 µM
  relative viability: 0.0552
[11]; first compound 0.2 µM
  relative viability: 0.066

## CCNC(=O)c1noc(-c2cc(C(C)C)c(O)cc2O)c1-c1ccc(CN2CCOCC2)cc1 [Luminespib] + CS(=O)(=O)N1CCN(Cc2cc3nc(-c4cccc5[nH]ncc45)nc(N4CCOCC4)c3s2)CC1 [Pictilisib] (partner 1 µM)
[1]; first compound 0.002 µM
  relative viability: 0.874
[1]; first compound 0.006325 µM
  relative viability: 0.698
[1]; first compound 0.02 µM
  relative viability: 0.767
[1]; first compound 0.06325 µM
  relative viability: 0.0703
[1]; first compound 0.2 µM
  relative viability: 0.0666
[2]; first compound 0.002 µM
  relative viability: 0.536
[2]; first compound 0.006325 µM
  relative viability: 0.517
[2]; first compound 0.02 µM
  relative viability: 0.152
[2]; first compound 0.06325 µM
  relative viability: 0.0437
[2]; first compound 0.2 µM
  relative viability: 0.0569
[3]; first compound 0.002 µM
  relative viability: 0.721
[3]; first compound 0.006325 µM
  relative viability: 0.605
[3]; first compound 0.02 µM
  relative viability: 0.616
[3]; first compound 0.06325 µM
  relative viability: 0.525
[3]; first compound 0.2 µM
  relative viability: 0.551
[4]; first compound 0.002 µM
  relative viability: 0.471
[4]; first compound 0.006325 µM
  relative viability: 0.365
[4]; first compound 0.02 µM
  relative viability: 0.248
[4]; first compound 0.06325 µM
  relative viability: 0.118
[4]; first compound 0.2 µM
  relative viability: 0.128
[5]; first compound 0.002 µM
  relative viability: 0.908
[5]; first compound 0.006325 µM
  relative viability: 0.776
[5]; first compound 0.02 µM
  relative viability: 0.663
[5]; first compound 0.06325 µM
  relative viability: 0.2
[5]; first compound 0.2 µM
  relative viability: 0.157
[6]; first compound 0.002 µM
  relative viability: 0.497
[6]; first compound 0.006325 µM
  relative viability: 0.525
[6]; first compound 0.02 µM
  relative viability: 0.447
[6]; first compound 0.06325 µM
  relative viability: 0.485
[6]; first compound 0.2 µM
  relative viability: 0.3
[7]; first compound 0.002 µM
  relative viability: 0.204
[7]; first compound 0.06325 µM
  relative viability: 0.267
[7]; first compound 0.2 µM
  relative viability: 0.279
[8]; first compound 0.002 µM
  relative viability: 1.04
[8]; first compound 0.006325 µM
  relative viability: 0.847
[8]; first compound 0.02 µM
  relative viability: 1
[8]; first compound 0.06325 µM
  relative viability: 0.119
[8]; first compound 0.2 µM
  relative viability: 0.112
[9]; first compound 0.002 µM
  relative viability: 0.251
[9]; first compound 0.006325 µM
  relative viability: 0.244
[9]; first compound 0.02 µM
  relative viability: 0.179
[9]; first compound 0.06325 µM
  relative viability: 0.179
[9]; first compound 0.2 µM
  relative viability: 0.165
[10]; first compound 0.002 µM
  relative viability: 0.663
[10]; first compound 0.006325 µM
  relative viability: 0.641
[10]; first compound 0.02 µM
  relative viability: 0.62
[10]; first compound 0.06325 µM
  relative viability: 0.381
[10]; first compound 0.2 µM
  relative viability: 0.12
[11]; first compound 0.002 µM
  relative viability: 0.324
[11]; first compound 0.006325 µM
  relative viability: 0.369
[11]; first compound 0.02 µM
  relative viability: 0.159
[11]; first compound 0.06325 µM
  relative viability: 0.0483
[11]; first compound 0.2 µM
  relative viability: 0.0407
